Each structure is given as a SMILES string. pIC50: −log10 of the molar value.

The target of assay [1] is T1, recombinant human FLAP protein (Homo sapiens, UniProt P20292).
T1 construct: made in house; host or cells: Sf9 insect cells (100,000xg membrane fraction used)
T1 sequence (P20292 1-161): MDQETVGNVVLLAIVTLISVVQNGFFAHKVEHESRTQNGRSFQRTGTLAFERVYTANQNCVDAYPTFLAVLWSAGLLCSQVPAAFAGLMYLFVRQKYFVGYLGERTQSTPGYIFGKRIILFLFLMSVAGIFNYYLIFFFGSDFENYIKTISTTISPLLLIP
Nature of the assay: FLAP binding assay (Scintillation Proximity Assay, displacement of [125I]L-691,831). Particulars: read-out: FLAP SPA IC50. The procedure: Compounds are assessed for the ability to bind to FLAP in a binding assay that measures compound-specific displacement of an iodinated (^125I) FLAP inhibitor via a Scintillation Proximity Assay format (adapted from S. Charleson et al., Mol. Pharmacol., 1992, 41, 873-879).
Cell pellets produced from sf9 insect cells expressing recombinant human FLAP protein are resuspended in buffer A [15 mM Tris-HCl (pH 7.5), 2 mM MgCl2, 0.3 mM EDTA, 1 mM PMSF]. The cells are lysed with a Dounce homogenizer and the material is centrifuged at 10,000×g for 10 minutes. The supernatant is then collected and centrifuged at 100,000×g for 60 minutes. To prepare membrane protein for an assay, an aliquot of the 100,000×g pellet is resuspended in 1 ml of buffer A, Dounce homogenized, and finally subjected to polytron mixing (30 seconds). Membrane protein (25 μl, 5 μg) is mixed with WGA SPA beads (Amersham) and stirred for 1 h. […] (final concentrations: beads, 200 μg/well; protein, 5 μg/well; [^125I] probe, 0.08 nM/well (17 nCi/well). The plates are shaken for 2 h before reading on a Microbeta plate reader. Non-specific binding is determined by the addition of 10 μM cold L-691,831 compound.
Background: SPA uses beads or plates that emit light when radiolabelled molecules are held near them.

Assay [2] relates to synthesis of LTB4 in human whole blood. Nature of the assay: human whole blood LTB4 production inhibition assay. It is filed as cell-based. The conditions noted are these: calcimycin stimulated, read-out: hWB LTB4 IC50. The procedure: Compounds are additionally tested in a human whole blood assay to determine their ability to inhibit the synthesis of LTB4 in a cellular system. Compounds are combined with heparinized human whole blood and incubated for 15 minutes at 37° C. Calcimycin (20 μM final, prepared in phosphate-buffered saline, pH 7.4) is then added and the mixture is incubated for another 30 minutes at 37° C. The samples are centrifuged for 5 min at low speed (1500×g) and the plasma layer is removed. Plasma LTB4 concentrations are then measured using an antibody-based homogenous time-resolved fluorescence method (CisBio, Bedford, Mass.).

As to `CC(O)Cn1cc(-c2nc(C(C)(c3ccc(-c4cnc(N)nc4)nc3)C(C)C)no2)cn1` (centres unmarked) [Example 1, 1-[4-(3-{2-[6-(2-aminopyrimidin-5-yl)pyridin-3-yl]-3-methylbutan-2-yl}-1,2,4-oxadiazol-5-yl)-1H-pyrazol-1-yl]propan-2-ol], the pIC50 is 8.08 in assay [1] and 7.27 in assay [2].
For the compound `CC(C)C(C)(c1ccc(-c2cnc(N)nc2)nc1)c1noc(-c2cnn(CC(C)(C)O)c2)n1` (centres unmarked) [Example 2, 1-[4-(3-{2-[6-(2-aminopyrimidin-5-yl)pyridin-3-yl]-3-methylbutan-2-yl}-1,2,4-oxadiazol-5-yl)-1H-pyrazol-1-yl]-2-methylpropan-2-ol], the pIC50 in assay [1] was 8.00; in assay [2], 7.13.
As for `CC(C)C(C)(c1ccc(-c2cnc(N)nc2)nc1)c1noc(-c2cnn(C)c2)n1` (centres unmarked) [Example 3, 5-(5-{3-methyl-2-[5-(1-methyl-1H-pyrazol-4-yl)-1,2,4-oxadiazol-3-yl]butan-2-yl}pyridin-2-yl)pyrimidin-2-amine], the values for the negative logarithm of the IC50 (pIC50) in assay [1] and in assay [2] were 8.33 and 7.17, respectively.
Consider `CC(C)[C@](C)(c1ccc(-c2cnc(N)nc2)nc1)c1noc(-c2cnn(C)c2)n1` [Example 4, 5-(5-{(2R)-3-methyl-2-[5-(1-methyl-1H-pyrazol-4-yl)-1,2,4-oxadiazol-3-yl]butan-2-yl}pyridin-2-yl)pyrimidin-2-amine], for which the pIC50 in assay [1] is 8.52; in assay [2], 7.70.
The corresponding values for `CC(C)[C@@](C)(c1ccc(-c2cnc(N)nc2)nc1)c1noc(-c2cnn(C)c2)n1` [Example 5, 5-(5-{(2S)-3-methyl-2-[5-(1-methyl-1H-pyrazol-4-yl)-1,2,4-oxadiazol-3-yl]butan-2-yl}pyridin-2-yl)pyrimidin-2-amine] are 7.12 and 6.12.
Take `CC(C)C(C)(c1ccc(-c2cnc(N)nc2)nc1)c1noc(-c2cnn(C(C)(C)CO)c2)n1` (centres unmarked) [Example 6, 2-[4-(3-{2-[6-(2-aminopyrimidin-5-yl)pyridin-3-yl]-3-methylbutan-2-yl}-1,2,4-oxadiazol-5-yl)-1H-pyrazol-1-yl]-2-methylpropan-1-ol]: the pIC50 was 8.07 in assay [1] and 6.66 in assay [2].
With `CC(C)C(C)(c1ccc(-c2cnc(N)nc2)nc1)c1noc(-c2cnn(CC(=O)N(C)C)c2)n1` (centres unmarked) [Example 7, 2-[4-(3-{2-[6-(2-aminopyrimidin-5-yl)pyridin-3-yl]-3-methylbutan-2-yl}-1,2,4-oxadiazol-5-yl)-1H-pyrazol-1-yl]-N,N-dimethylacetamide], the negative logarithm of the IC50 (pIC50) in assay [1] was 7.84; in assay [2], 6.74.
`COCCn1cc(-c2nc(C(C)(c3ccc(-c4cnc(N)nc4)nc3)C(C)C)no2)cn1` (centres unmarked) [Example 8, 5-[5-(2-{5-[1-(2-methoxyethyl)-1H-pyrazol-4-yl]-1,2,4-oxadiazol-3-yl}-3-methylbutan-2-yl)pyridin-2-yl]pyrimidin-2-amine]: the pIC50 in assay [1] was 8.20; in assay [2], 7.17.
Consider `CC(C)C(C)(c1ccc(-c2cnc(N)nc2)nc1)c1noc(-c2cnn(C3COC3)c2)n1` (centres unmarked) [Example 9, 5-[5-(3-methyl-2-{5-[1-(oxetan-3-yl)-1H-pyrazol-4-yl]-1,2,4-oxadiazol-3-yl}butan-2-yl)pyridin-2-yl]pyrimidin-2-amine], for which the pIC50 in assay [1] is 8.23; in assay [2] it was 7.60.
In the case of `COCCNc1cnc(-c2nc(C(C)(c3ccc(-c4cnc(N)nc4)nc3)C(C)C)no2)cn1` (centres unmarked) [Example 10, 5-{5-[2-(5-{5-[(2-methoxyethyl)amino]pyrazin-2-yl}-1,2,4-oxadiazol-3-yl)-3-methylbutan-2-yl]pyridin-2-yl}pyrimidin-2-amine], the pIC50 is 8.31 in assay [1] and 7.22 in assay [2].
`CC(C)C(C)(c1ccc(-c2cnc(N)nc2)nc1)c1noc(-c2cnn3cccnc23)n1` (centres unmarked) [Example 11, 5-(5-{3-methyl-2-[5-(pyrazolo[1,5-a]pyrimidin-3-yl)-1,2,4-oxadiazol-3-yl]butan-2-yl}pyridin-2-yl)pyrimidin-2-amine]: the pIC50 in assay [1] is 8.54; in assay [2] it was 7.40.
Consider `CC(C)(O)Cn1cc(-c2nc(C(C)(c3ccc(-c4cnc(N)nc4)nc3)C3CC3)no2)cn1` (centres unmarked) [Example 66, 1-[4-(3-{1-[6-(2-aminopyrimidin-5-yl)pyridin-3-yl]-1-cyclopropylethyl}-1,2,4-oxadiazol-5-yl)-1H-pyrazol-1-yl]-2-methylpropan-2-ol], for which the pIC50 in assay [2] was 7.28.
On the same count and under the same terms, with `CC(C)(O)Cn1cc(-c2nc([C@@](C)(c3ccc(-c4cnc(N)nc4)nc3)C3CC3)no2)cn1` [Example 81, 1-[4-(3-{(1R)-1-[6-(2-aminopyrimidin-5-yl)pyridin-3-yl]-1-cyclopropylethyl}-1,2,4-oxadiazol-5-yl)-1H-pyrazol-1-yl]-2-methylpropan-2-ol] the figure was 7.39; with `CC(C)(O)Cn1cc(-c2nc([C@](C)(c3ccc(-c4cnc(N)nc4)nc3)C3CC3)no2)cn1` [Example 82, 1-[4-(3-{(1S)-1-[6-(2-aminopyrimidin-5-yl)pyridin-3-yl]-1-cyclopropylethyl}-1,2,4-oxadiazol-5-yl)-1H-pyrazol-1-yl]-2-methylpropan-2-ol], 5.92.
Take `CC(C)(O)Cn1cc(-c2nc([C@@](C)(c3ccc(-c4cnc(N)c(C#N)c4)nc3)C3CC3)no2)cn1` [Example 162, 6′-Amino-5-((R)-1-cyclopropyl-1-{5-[1-(2-hydroxy-2-methyl-propyl)-1H-pyrazol-4-yl]-[1,2,4]oxadiazol-3-yl}-ethyl)-[2,3′]bipyridinyl-5′-carbonitrile]: the pIC50 in assay [2] is 6.50.
As for `CC(C)(O)Cn1cc(-c2nc([C@@](C)(c3ccc(-c4cnc5c(c4)OCCN5)nc3)C3CC3)no2)cn1` [Example 167, 1-[4-(3-{(R)-1-Cyclopropyl-1-[6-(3,4-dihydro-2H-pyrido[3,2-b][1,4]oxazin-7-yl)-pyridin-3-yl]-ethyl}-[1,2,4]oxadiazol-5-yl)-pyrazol-1-yl]-2-methyl-propan-2-ol], the pIC50 in assay [2] is 6.77.
Take `CC(C)(O)Cn1cc(-c2nc([C@@](C)(c3ccc(-c4cnc5[nH]ccc5n4)nc3)C3CC3)no2)cn1` [Example 168, 1-[4-(3-{(R)-1-Cyclopropyl-1-[6-(5H-pyrrolo[2,3-b]pyrazin-2-yl)-pyridin-3-yl]-ethyl}-[1,2,4]oxadiazol-5-yl)-pyrazol-1-yl]-2-methyl-propan-2-ol]: the pIC50 in assay [2] was 7.20.
In the case of `CNc1ncc(-c2ccc([C@](C)(c3noc(-c4cnn(C5CCOCC5)c4)n3)C3CC3)cn2)cn1` [Example 169, {5-[5-((R)-1-Cyclopropyl-1-{5-[1-(tetrahydro-pyran-4-yl)-1H-pyrazol-4-yl]-[1,2,4]oxadiazol-3-yl}-ethyl)-pyridin-2-yl]-pyrimidin-2-yl}-methyl-amine], in assay [2], the pIC50 was 6.98.
`CNc1cnc(-c2ccc([C@](C)(c3noc(-c4cnn(C)c4)n3)C3CC3)cn2)cn1` [Example 170, [5-(5-{(R)-1-Cyclopropyl-1-[5-(1-methyl-1H-pyrazol-4-yl)-[1,2,4]oxadiazol-3-yl]-ethyl}-pyridin-2-yl)-pyrazin-2-yl]-methyl-amine]: the pIC50 in assay [2] was 6.95.
Still for that read-out and setting: as for `C[C@@](c1ccc(-c2cnc(N)nc2)nc1)(c1noc(-c2cnn(C3CCOCC3)c2)n1)C1CC1` [Example 171, 5-[5-((R)-1-Cyclopropyl-1-{5-[1-(tetrahydro-pyran-4-yl)-1H-pyrazol-4-yl]-[1,2,4]oxadiazol-3-yl}ethyl)-pyridin-2-yl]-pyrimidin-2-ylamine], the figure is 6.92.
As to `CNc1ncc(-c2ccc([C@](C)(c3noc(-c4cnn(C)c4)n3)C3CC3)cn2)cn1` [Example 172, [5-(5-{(R)-1-Cyclopropyl-1-[5-(1-methyl-1H-pyrazol-4-yl)-[1,2,4]oxadiazol-3-yl]ethyl}-pyridin-2-yl)-pyrimidin-2-yl]-methyl-amine], the negative logarithm of the IC50 (pIC50) in assay [2] is 6.98.
As for `CNc1cnc(-c2ccc([C@](C)(c3noc(-c4cnn(C5CCOCC5)c4)n3)C3CC3)cn2)cn1` [Example 173, {5-[5-((R)-1-Cyclopropyl-1-{5-[1-(tetrahydro-pyran-4-yl)-1H-pyrazol-4-yl]-[1,2,4]oxadiazol-3-yl}-ethyl)-pyridin-2-yl]-pyrazin-2-yl}-methyl-amine], the negative-log IC50 (pIC50) in assay [2] was 6.66.
On the same count and under the same terms, with `C[C@@](c1ccc(-c2cnc(N)cn2)nc1)(c1noc(-c2cnn(C3CCOCC3)c2)n1)C1CC1` [Example 174] the figure was 7.28; with `CNc1ncc(-c2ccc([C@](C)(c3noc(-c4cnn(CC(=O)N(C)C)c4)n3)C3CC3)cn2)cn1` [Example 176, 2-[4-(3-{(R)-1-Cyclopropyl-1-[6-(2-methylamino-pyrimidin-5-yl)-pyridin-3-yl]-ethyl}-[1,2,4]oxadiazol-5-yl)-pyrazol-1-yl]-N,N-dimethyl-acetamide], 6.57.

As a reminder, the pIC50 is the IC50 on a negative log10 scale, so that one unit is a factor of ten.

These data come from US8580825B2, “Oxadiazole inhibitors of leukotriene production” (Boehringer Ingelheim International GmbH, priority 2010, dated 2013).
